Assay results from ChEMBL document CHEMBL5346960, “Quantitative Attribution of the Protective Effects of Aminosterols against Protein Aggregates to Their Chemical Structures and Ability to Modulate Biological Membranes” (2023).
Active and inactive are the calls of the source. The rule behind the calls is not given here.

Columns and labels:
[1] = test system: SH-SY5Y; assay: Protection against human SH-SY5Y cells assessed as decrease in ADDL-induced cytosolic calcium level incubated for 15 mins by Fluo-4 AM dye based scanning confocal microscopic analysis; type: functional, cell-based; conditions: dose 0.05-5 µM
[2] = test system: Lipid bilayer; assay: Induction of membrane redistribution in large unilamellar vesicles liposome model assessed as mean shortest distance between BODIPY-FL-SM and BODIPY-542/563 C11-CHOL at 5 uM by FRET assay (reference value: 69 +/- 1 Angstrom); conditions: filed as modulator
[3] = test system: Lipid bilayer; assay: Induction of membrane redistribution in large unilamellar vesicles liposome model assessed as mean shortest distance between BODIPY-FL C5-GM1 and BODIPY-542/563 C11-CHOL at 5 uM by FRET assay relative to control; conditions: filed as modulator
[4] = test system: Lipid bilayer; assay: Induction of membrane redistribution in large unilamellar vesicles liposome model assessed as mean shortest distance between BODIPY-FL-CHOL and BODIPY-542/563 C11-CHOL at 5 uM by FRET assay relative to control; conditions: filed as modulator
[5] = test system: Lipid bilayer; assay: Binding affinity to large unilamellar vesicles liposome model assessed as saturation concentration by measuring increase in LUV mass incubated for 15 mins by light scattering analysis; conditions: filed as modulator
[6] = test system: Lipid bilayer; assay: Binding affinity to large unilamellar vesicles liposome model assessed as increase in transition temperature […] (reference value: 24.5 +/- 2 degreeC); conditions: filed as modulator
[7] = test system: Lipid bilayer; assay: Binding affinity to large unilamellar vesicles liposome model assessed as saturation concentration by measuring increase in incorporated compound mass incubated for 15 mins by light scattering analysis; conditions: filed as modulator
[8] = test system: Lipid bilayer; assay: Binding affinity to large unilamellar vesicles liposome model assessed as increase in LUV diameter incubated for 15 mins by light scattering analysis
[9] = test system: Lipid bilayer; assay: Displacement of alpha-synuclein from DMPS large unilamellar vesicles liposome model incubated for 15 mins by Far-UV CD spectroscopy; conditions: filed as modulator, dose <= 70.0 µM
[10] = test system: SH-SY5Y; assay: Protection against human SH-SY5Y cells assessed as decrease in ADDL-induced cytosolic calcium level at 5 uM incubated for 15 mins by Fluo-4 AM dye based scanning confocal microscopic analysis; type: functional; design: scale not given: the % may be the effect or the level left; conditions: 0.25 h
[11] = test system: Lipid bilayer; assay: Induction of membrane redistribution in large unilamellar vesicles liposome model assessed as mean shortest distance between BODIPY-FL C5-GM1 and BODIPY-542/563 C11-CHOL at 5 uM by FRET assay (reference value: 65 +/- 1 Angstrom); conditions: filed as modulator
[12] = test system: Lipid bilayer; assay: Induction of membrane redistribution in large unilamellar vesicles liposome model assessed as mean shortest distance between BODIPY-FL-CHOL and BODIPY-542/563 C11-CHOL at 5 uM by FRET assay (reference value: 72 +/- 1 Angstrom); conditions: filed as modulator
[13] = test system: Lipid bilayer; assay: Binding affinity to large unilamellar vesicles liposome model assessed as increase in LUV size incubated for 15 mins by light scattering analysis; conditions: filed as modulator
[14] = test system: Lipid bilayer; assay: Induction of membrane redistribution in large unilamellar vesicles liposome model assessed as mean shortest distance between BODIPY-FL-DOPC and BODIPY-542/563 C11-CHOL at 5 uM by FRET assay (reference value: 70 +/- 2 Angstrom); conditions: filed as modulator
[15] = test system: Lipid bilayer; assay: Binding affinity to large unilamellar vesicles liposome model assessed as saturation concentration by microfluidic analysis; conditions: filed as modulator

| Activity [2] | Activity [3] | Activity [4] | Activity [5] | T [6] | Activity [7] | Activity [8] | Activity [9] | Activity [11] | Activity [12] | Activity [13] | Activity [14] | Activity [15] | SMILES | Activity [1] | Activity [10] |
| --- | --- | --- | --- | --- | --- | --- | --- | --- | --- | --- | --- | --- | --- | --- | --- |
| 69 Angstrom | 57% | 64% | 43 µM | 46 °C | 43 µM | inactive | Dose-Dependent Effect | 73 Angstrom | 63 Angstrom | Active | 67 Angstrom |  | C[C@H](CCC[C@H](C)C(=O)O)[C@H]1CC[C@H]2[C@@H]3[C@H](O)C[C@H]4C[C@@H](NCCCNCCCCNCCCN)CC[C@]4(C)[C@H]3CC[C@]12C | Dose-Dependent Effect | 100% |
| 67 Angstrom | 100% | 100% | 35 µM | 46 °C | 35 µM | inactive | Dose-Dependent Effect | 79 Angstrom | 58 Angstrom | Active | 68 Angstrom | 28 µM | CC(C)[C@@H](CC[C@@H](C)[C@H]1CC[C@H]2[C@@H]3[C@H](O)C[C@H]4C[C@@H](NCCCNCCCCNCCCN)CC[C@]4(C)[C@H]3CC[C@]12C)OS(=O)(=O)O [TRODUSQUEMINE] | Dose-Dependent Effect | 100% |
| 72 Angstrom | 50% | 57% | 12 µM | 35 °C | 15 µM | inactive | Dose-Dependent Effect | 72 Angstrom | 64 Angstrom | Active | 68 Angstrom |  | CC(C)[C@@H](CC[C@@H](C)[C@H]1CC[C@H]2[C@@H]3[C@H](O)C[C@H]4C[C@@H](NCCCNCCCCN)CC[C@]4(C)[C@H]3CC[C@]12C)OS(=O)(=O)O [SQUALAMINE] | Dose-Dependent Effect | 100% |
